Data reported in PubChem BioAssay (NCI).
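How tested: cells in 96-well plates exposed to compound for 48 hours at five concentrations. GI50 = concentration required for 50% inhibition of growth. At the TGI there is no net growth.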

Test system: LOX IMVI melanoma
Assay: inhibition of tumour cell growth, NCI panel, 48 h

| Compound | TGI [µM] | GI50 [µM] |
| --- | --- | --- |
| COc1ccccc1NC(=O)C1=C(C)NC(C)=C(C(=O)Nc2ccccc2OC)C1c1ccc([N+](=O)[O-])cc1 | > 100 |  |
| O=C(CSc1nnc(-c2ccccc2NC(=O)C(F)(F)F)c(=O)[nH]1)NC(=O)Nc1ccccc1 | > 100 |  |
| COC(=O)/C=C/C1C(C(=O)OC)C2(C(=O)OC)CCC1(C(=O)OC)N2 (centres undefined) | > 100 |  |
| CC(C)(C)N1CC2(CCCCC2)C1=O | > 100 |  |
| CC(=O)c1c(CBr)n([O-])c2ccccc2[n+]1=O | 23 | 10.8 |
| C#CC(=O)Nc1cccc(Nc2nc3c(c(NCc4ccccc4)n2)CCCC3)c1 | < 0.01 | < 0.01 |
| COc1ccc(C(=O)C(CO)Oc2ccccc2OC)cc1OC (centres undefined) | > 100 |  |
| N#CC(/C(=N/NC(=O)C(=O)NN)C(=O)NC12CC3CC(CC(C3)C1)C2)c1ccccc1 (centres undefined) | > 100 |  |
| CN=NN(C)C(=O)NC | > 100 |  |
| Nc1c(C(=O)N/N=C/c2ccc(-c3ccc(Cl)cc3)o2)cnn1-c1ccnc2c(C(F)(F)F)cccc12 | > 100 | > 100 |
| CCCCCCCCCc1cc(=O)c2c(O)cccc2o1 | 72.3 |  |
| N#CC1Nc2ccccc2[C@@H](O)C1O (some centres undefined) | > 100 |  |
| CCN(CC)CC(C)(C)C(=O)/C=C/c1ccc(Cl)c(Cl)c1 | 2.03 | 0.774 |
| CCN(CC)CCNCC(=O)Oc1ccc(/C=C/C(=O)CC(=O)/C=C/c2ccc(OC(=O)CNCCN(CC)CC)c(OC)c2)cc1OC | 4.71 | 2.13 |
| COc1cc(NC(C)CCCN)c2nccc(C)c2c1OC (centres undefined) | 28.7 | 14.7 |
| O=C(CN1CCCCC1)N1CCc2c([nH]c3ccccc23)C1c1cccnc1 (centres undefined) | > 100 |  |
| COC(=O)C12C3C4C5(C(=O)OC)C(C1C35C(=O)N(C(C)C)C(C)C)C42C(=O)N(C(C)C)C(C)C (centres undefined) | > 43.6 |  |
| CC(=O)O[C@@H]1C[C@]2(C(C)C)O[C@@]1(C)[C@@H]1CCC(C)=C1[C@@H]2OC(=O)/C=C/c1ccccc1 | > 100 | 29.4 |
| Cc1cc(C)n(CCNCCn2nc(C)cc2C)n1 | > 100 |  |
| O=C1CSC(Cc2nc3ccccc3[nH]2)=N1 | 37.3 |  |
| O=C(Nc1cccc(Cl)c1Cl)c1cccc(NC2=C(Cl)C(=O)N(Cc3ccccc3)C2=O)c1 | > 100 | 13.1 |
| O=C(/C=C/c1ccccc1)/C=C/c1ccccc1 | 31.7 |  |
| COc1cc2c(cc1OC)C13CCN4CC5=CCOC6CC(=O)N2C1C6C5CC43O (centres undefined) | > 100 |  |
| N#CC(C#N)=c1[nH]c2cccc3c2-c2c(cccc2c3=C(C#N)C#N)[nH]1 | > 100 |  |

Test system: MCF7 breast
Assay: inhibition of tumour cell growth, NCI panel, 48 h

| Compound | GI50 [µM] | TGI [µM] |
| --- | --- | --- |
| CC(=O)Oc1ccccc1C(=O)N=C1[Se]CCN1C(=O)c1ccccc1OC(C)=O | 1.12 | 5.06 |
| CSC1(CC(=O)N(C)C)C(=O)Nc2ccccc21 (centres undefined) |  | > 100 |
| COc1cc(/C=C2\C(=O)Nc3ccc(F)cc32)cc(OC)c1OC | 4.73 | > 100 |
| C#C[C@]1(O)CC[C@H]2[C@@H]3CC=C4c5sc(Nc6ccccc6)nc5CC[C@]4(C)[C@H]3CC[C@@]21C | 1.57 | 4.28 |
| Cc1cn2c(/C=C3/C(=O)Nc4ccccc43)c(-c3ccc(Cl)cc3)nc2s1 | 6.9 | 19.7 |
| C#CC(=O)Nc1cccc(Nc2nc3c(c(NCc4ccccc4)n2)CCCC3)c1 | 0.296 | 1.81 |
| Nc1c(C(=O)N/N=C/c2ccc(-c3ccc(Cl)cc3)o2)cnn1-c1ccnc2c(C(F)(F)F)cccc12 | > 100 | > 100 |
| c1ccc2c3ccn4cc5c(cc4c-3nc2c1)CCCC5 | 2.5 | 11 |
| N#CC1Nc2ccccc2[C@@H](O)C1O (some centres undefined) |  | > 100 |
| Cc1c(C2Nc3ccccc3C2C)[nH]c2ccccc12 (centres undefined) | 4.26 | 27.8 |
| CCN(CC)CC(C)(C)C(=O)/C=C/c1ccc(Cl)c(Cl)c1 | 0.959 | 2.8 |
| CCN(CC)CCNCC(=O)Oc1ccc(/C=C/C(=O)CC(=O)/C=C/c2ccc(OC(=O)CNCCN(CC)CC)c(OC)c2)cc1OC | 2.58 | 18 |
